Measurements: patent publication US11751573B2, “Seaweed composition” (priority 2017, dated 2023)

Tests used:
tobacco callus = tobacco callus bioassay, cited from earlier work; for MINIMUM CONCENTRATION / OPTIMUM CONCENTRATION: Matsubara 1990, Letham et al. 1983; for minimum concentrations required for activity compared to tZ and BA: fold worse
Phaseolus lunatus callus = details: cited from earlier work; for MINIMUM CONCENTRATION / OPTIMUM CONCENTRATION: P. lunatus callus bioassay, Matsbuara 1990; for EC50: Phaseolus lunatus callus, Mok et al. 2005, read-out: concentration at which one half of the maximal growth is achieved
[1] = test system: Phaseolus vulgaris callus; details: Phaseolus vulgaris callus assay; Matsbuara 1990; cited from earlier work
[2] = test system: Tobacco callus/P. lunatus callus; assay: trans-Zeatin equivalents based on Tobacco callus/P. lunatus callus bioassay; type: cell-based; details: for nM in tZ EQUIVALENTS IN KELPAK / nM in tZ E[…] KELPAK: contribution of the cytokinin in Kelpak
Description: It can be seen from Table 4 that there is significant variation in activity between the cytokinins. The minimum concentration required for an effect and the optimum concentration in the tobacco callus assay are much better for iP and tZ than the other cytokinins, with BA still quite good.
The activity of pT in this assay has not been reported.
Nevertheless, the response of plant growth to different cytokinins can vary depending on the specific circumstances.

Pea test = details: used to make it equivalent to IAA; Pilet 1971; cited from earlier work
[3] = contribution of the cytokinin in Composition 2
[4] = contribution of the cytokinin in Composition 1

Compound: CC(CO)CCNc1ncnc2nc[nH]c12 (stereo not drawn) [dihydrozeatin (DHZ), dihydrozeatin]
- MINIMUM CONCENTRATION (tobacco callus): 0.01 µM
- OPTIMUM CONCENTRATION (tobacco callus): 0.4 µM

Compound: c1ccc(CNc2ncnc3nc[nH]c23)cc1 [N6-benzyladenine (BA), N6-benzyladenine]
- MINIMUM CONCENTRATION (Phaseolus lunatus callus): 0.01 µM
- OPTIMUM CONCENTRATION (Phaseolus lunatus callus): 3 µM
- EC50 (Phaseolus lunatus callus): ~40 nM
- MINIMUM CONCENTRATION (tobacco callus): 0.0008 µM
- OPTIMUM CONCENTRATION (tobacco callus): 0.07 µM
- MINIMUM CONCENTRATION [1]: 0.001 µM
- nM in tZ EQUIVALENTS IN 90° C. EXTRACT (COMPOSITION 2) [2, 3]: 0.0002 nM
- nM in tZ EQUIVALENTS IN KELPAK [2]: 0.01 nM

Compound: C/C(=C\CNc1ncnc2c1ncn2[C@@H]1O[C@H](CO)[C@@H](O)[C@H]1O)CO (relative stereo) [trans-zeatin riboside (tZR), trans-zeatin riboside]
- MINIMUM CONCENTRATION (Phaseolus lunatus callus): 0.003 µM
- OPTIMUM CONCENTRATION (Phaseolus lunatus callus): 0.1 µM
- MINIMUM CONCENTRATION (tobacco callus): 0.003 µM
- OPTIMUM CONCENTRATION (tobacco callus): 0.3 µM
- MINIMUM CONCENTRATION [1]: 0.03 µM
- OPTIMUM CONCENTRATION [1]: 3 µM

Compound: CC(CCNc1ncnc2nc[nH]c12)CO[C@@H]1O[C@H](CO)[C@@H](O)[C@H](O)[C@H]1O (stereo partly drawn) [Dihydrozeatin-O-glucoside (DHZOG), Dihydrozeatin-O-glucoside]
- MINIMUM CONCENTRATION (tobacco callus): 0.001 µM

Compound: c1coc(CNc2ncnc3[nH]cnc23)c1 [kinetin (K), kinetin]
- MINIMUM CONCENTRATION (tobacco callus): 0.001 µM
- OPTIMUM CONCENTRATION (tobacco callus): 0.1 µM

Compound: C/C(=C\CNc1ncnc2nc[nH]c12)CO [trans-zeatin (tZ), trans-zeatin]
- MINIMUM CONCENTRATION (Phaseolus lunatus callus): 0.001 µM
- OPTIMUM CONCENTRATION (Phaseolus lunatus callus): 0.3 µM
- EC50 (Phaseolus lunatus callus): ~20 nM
- MINIMUM CONCENTRATION (tobacco callus): 0.0001 µM
- OPTIMUM CONCENTRATION (tobacco callus): 0.004 to 0.05 µM
- MINIMUM CONCENTRATION [1]: 0.0301 µM
- OPTIMUM CONCENTRATION [1]: 3 µM
- nM in tZ E[…] KELPAK [2]: 0.29 nM

Compound: trans-zeatin-9-glucoside [trans-zeatin-9-glucoside (tZ9G)]
- MINIMUM CONCENTRATION (tobacco callus): >50 µM

Compound: OC[C@H]1O[C@@H](n2cnc3c(NCc4ccccc4)ncnc32)[C@H](O)[C@@H]1O [N6-benzyladenosine (BAR), N6-benzyladenosine]
- MINIMUM CONCENTRATION (tobacco callus): 0.02 µM
- OPTIMUM CONCENTRATION (tobacco callus): 1 µM
- nM in tZ EQUIVALENTS IN KELPAK [2]: 0.0001 nM

Compound: CC(CO)CCNc1ncnc2c1ncn2[C@@H]1O[C@H](CO)[C@@H](O)[C@H]1O (stereo partly drawn) [dihydrozeatin riboside (DHZR), dihydrozeatin riboside]
- MINIMUM CONCENTRATION (tobacco callus): 0.01 µM
- OPTIMUM CONCENTRATION (tobacco callus): 4 µM
- nM in tZ EQUIVALENTS IN KELPAK [2]: 0.00001 nM

Compound: Oc1ccccc1CNc1ncnc2nc[nH]c12 [ortho-topolin (oT), ortho-topolin]
- EC50 (Phaseolus lunatus callus): ~1000 nM
- minimum concentrations required for activity compared to tZ and BA (tobacco callus; Holub et al. 1998): 100 fold
- nM in tZ EQUIVALENTS IN KELPAK [2]: 0.002 nM

Compound: Oc1ccc(CNc2ncnc3nc[nH]c23)cc1 [para-topolin (pT), para-topolin]
- EC50 (Phaseolus lunatus callus): ~30000 nM
- nM in tZ EQUIVALENTS IN ROOM TEMPERATURE EXTRACT (COMPOSITION 1) [2, 4]: 0.0001 nM
- nM in tZ EQUIVALENTS IN 90° C. EXTRACT (COMPOSITION 2) [2, 3]: 0.09 nM

Compound: OC[C@H]1O[C@@H](n2cnc3c(NCc4ccccc4O)ncnc32)[C@H](O)[C@@H]1O [oTR, ortho-topolin riboside]
- minimum concentrations required for activity compared to tZ and BA (tobacco callus; Holub et al. 1998): 100 fold

Compound: cis-zeatin riboside [cis-zeatin riboside (cZR)]
- MINIMUM CONCENTRATION (tobacco callus): 0.03 µM
- OPTIMUM CONCENTRATION (tobacco callus): 0.3 µM

Compound: Oc1cccc(CNc2ncnc3nc[nH]c23)c1 [mT, meta-topolin]
- EC50 (Phaseolus lunatus callus): ~50 nM
- optimum concentration compared to tZ (tobacco callus; Holub et al. 1998): similar
- minimum concentrations required for activity compared to tZ and BA (tobacco callus; Holub et al. 1998): similar

Compound: COC(=O)C(=O)c1c[nH]c2ccccc12 [IGAMe, indole-3-glyoxylic acid methyl ester]
- activity relative to IAA (Pea test): 1/28

Compound: trans-zeatin-O-glucoside [trans-zeatin-O-glucoside (tZOG)]
- MINIMUM CONCENTRATION (tobacco callus): 0.001 µM
- nM in tZ E[…] KELPAK [2]: 3.6 nM

Compound: C/C(=C/CNc1ncnc2nc[nH]c12)CO [cis-zeatin (cZ), cis-zeatin]
- MINIMUM CONCENTRATION (Phaseolus lunatus callus): 0.03 µM
- OPTIMUM CONCENTRATION (Phaseolus lunatus callus): 3 µM
- EC50 (Phaseolus lunatus callus): ~300 nM
- MINIMUM CONCENTRATION (tobacco callus): 0.03 µM
- OPTIMUM CONCENTRATION (tobacco callus): 0.5 µM
- MINIMUM CONCENTRATION [1]: 0.01 µM
- OPTIMUM CONCENTRATION [1]: 3 µM
- nM in tZ E[…] ROOM T[…] (COMPOSITION 1) [2, 4]: 0.03 nM
- nM in tZ E[…] 90° C. EXTRACT (COMPOSITION 2) [2, 3]: 0.03 nM
- nM in tZ E[…] KELPAK [2]: 0.00008 nM

Compound: CC(CCNc1ncnc2c1ncn2C1OC(CO)C(O)C1O)COC1OC(CO)C(O)C(O)C1O (stereo not drawn) [dihydrozeatin riboside-O-glucoside]
- MINIMUM CONCENTRATION (tobacco callus): 0.002 µM
- nM in tZ EQUIVALENTS IN KELPAK [2]: 0.00003 nM

Compound: trans-zeatin riboside-O-glucoside
- MINIMUM CONCENTRATION (tobacco callus): 0.003 µM
- nM in tZ E[…] KELPAK [2]: 0.0005 nM
